Values quoted from earlier work, collected in patent US20220073443A1, “CANNABINOID FORMULATIONS AND METHODS OF MAKING SAME” (BOTANECO INC., priority 2018, published 2022).

Conditions: consumed by smoking marihuana; average

## CCCCCc1cc(O)c2c(c1)OC(C)(C)[C@@H]1CCC(C)=C[C@@H]21 [Δ^9-THC, Δ^9-tetrahydrocannabinol]
  bioavailability of pulmonary-delivered Δ9-THC: ~30%
